Results taken from patent US20180296453A1, “Oral Care Product and Methods of Use and Manufacture Thereof” (Colgate-Palmolive Company, priority 2008, published 2018).

Tests used:
[1] = test system: S. sanguis; experiment: Ammonia production by S. sanguis at pH 4.0; type: cell-based; conditions: 5 millimolar, pH 4.0, 0.1% sucrose, 37° C., 30 minutes
Method: An overnight culture of S. sanguis was grown at 37° C. in trypticase soy broth (Becton Dickinson, Sparks, Md.). The culture was centrifuged at 5,000 rpm for 5 minutes at 1 milliliter at a time into preweighed tubes in order to accumulate approximately 5 milligrams of wet pellet weight. The pellet was then resuspended into 20 millimolar potassium phosphate buffer (JT Baker, Phillipsburg, N.J.), pH 4.0, to simulate a stressed environment for the bacterial cell where ammonia would be produced for survival. The final concentration was 5 milligram per milliliter. To this final concentration, a 5 millimolar final concentration of L-arginine, L-citrulline, or L-ornithine was added along with a 0.1% final concentration of sucrose (VWR, West Chester, Pa.). This mixture was then incubated at 37° C. in a shaking water bath for 30 minutes before ammonia production was determined.
In order to analyze for ammonia, an Ammonia Assay kit was used from Diagnostic Chemicals Limited (Oxford, Conn.). The intended use of this specific kit is for the in vitro quantification of ammonia in plasma, but the procedure was modified in order to determine and quantify the ammonia production in plaque and/or bacteria.

[2] = cited from earlier work

Row | Structure (SMILES) | Ammonia ([1]; Mean of 6 trials) | Ammonia ([1]; Trial 1) | Ammonia ([1]; Trial 2) | Ammonia ([1]; Trial 3) | Ammonia ([1]; Trial 4) | Ammonia ([1]; Trial 5) | Ammonia ([1]; Trial 6) | solubility in water (in words) [2]
1 | N=C(N)NCCC[C@H](N)C(=O)O [L-Arginine, L-arginine] | 1.06 ppm | 0.509 ppm | 0.866 ppm | 2.20 ppm | 1.62 ppm | 0.5 ppm | 0.679 ppm | –
2 | Oc1cc(Cl)ccc1Oc1ccc(Cl)cc1Cl [triclosan, 5-chloro-2-(2,4-dichlorophenoxy)phenol] | – | – | – | – | – | – | – | only slightly soluble in water
3 | NC(=O)NCCC[C@H](N)C(=O)O [L-Citrulline, L-citrulline] | 0.951 ppm | 0.185 ppm | 0.346 ppm | 0.332 ppm | 0.194 ppm | 0.226 ppm | 0.951 ppm | –
4 | NCCC[C@H](N)C(=O)O [L-Ornithine, L-ornithine] | 0.134 ppm | 0.185 ppm | 0.260 ppm | 0.047 ppm | 0.0 ppm | 0.181 ppm | 0.135 ppm | –
